Results taken from patent US8293770B2, “Pyrrolidine derivatives as NK-3 receptor antagonists” (Hoffmann-La Roche Inc., priority 2008, dated 2012).

Target: T1, recombinant human NK3 receptor (Homo sapiens, UniProt P29371)
T1 construct: expressed in transfected cells; host or cells: HEK293 cells (transient expression), membranes
T1 sequence (P29371 1-465): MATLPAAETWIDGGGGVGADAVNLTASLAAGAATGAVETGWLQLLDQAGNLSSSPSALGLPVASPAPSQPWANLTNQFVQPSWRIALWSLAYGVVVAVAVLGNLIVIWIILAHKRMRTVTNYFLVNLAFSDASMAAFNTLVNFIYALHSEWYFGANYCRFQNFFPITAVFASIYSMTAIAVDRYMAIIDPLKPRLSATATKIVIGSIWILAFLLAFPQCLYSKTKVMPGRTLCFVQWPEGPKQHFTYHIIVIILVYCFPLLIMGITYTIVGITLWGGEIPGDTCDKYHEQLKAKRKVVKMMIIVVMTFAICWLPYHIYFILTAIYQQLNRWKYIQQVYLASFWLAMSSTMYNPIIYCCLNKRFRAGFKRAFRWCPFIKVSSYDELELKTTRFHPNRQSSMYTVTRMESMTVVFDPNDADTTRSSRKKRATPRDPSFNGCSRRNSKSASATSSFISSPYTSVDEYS
Assay: [3H]SR142801 competition binding assay
Settings: hNK3 receptor binding, [3H]SR142801, membranes from HEK293 cells transiently expressing recombinant human NK3 receptor
Protocol: [^3H]SR142801 competition binding assay
hNK3 receptor binding experiment were performed using [^3H]SR142801 (Catalog No. TRK1035, specific activity: 74.0 Ci/mmol, Amersham, GE Healthcare UK limited, Buckinghamshire, UK) and membrane isolated from HEK293 cells transiently expressing recombinant human NK3 receptor. After thawing, the membrane homogenates were centrifuged at 48,000×g for 10 min at 4° C., the pellets were resuspended in the 50 mM Tris-HCl, 4 mM MnCl2, 1 μM phosphoramidon, 0.1% BSA binding buffer at pH 7.4 to a final assay concentration of 5 μg protein/well. […] At the end of the incubation, membranes were filtered onto unitfilter (96-well white microplate with bonded GF/C filter preincubated 1 h in 0.3% PEI+0.3% BSA, Packard BioScience, Meriden, Conn.) with a Filtermate 196 harvester (Packard BioScience) and washed 4 times with ice-cold 50 mM Tris-HCl, pH 7.4 buffer. Nonspecific binding was measured in the presence of 10 μM SB222200 for both radioligands. The radioactivity on the filter was counted (5 min) on a Packard Top-count microplate scintillation counter with quenching correction after addition of 45 μl of microscint 40 (Canberra Packard S. A., Zürich, Switzerland) and shaking for 1 h. Inhibition curves were fitted according to the Hill equation: y=100/(1+(x/IC50)^nH), where nH=slope factor using Excel-fit 4 software (Microsoft). IC50 values were derived from the inhibition curve and the affinity constant (Ki) values were calculated using the Cheng-Prussoff equation Ki=IC50/(1+[L]/KD) where [L] is the concentration of radioligand and KD is its dissociation constant at the receptor, derived from the saturation isotherm. All experiments were performed in duplicate and the mean±standard error (SEM) of the individual Ki values was calculated.

SMILES | Ki [µM]
CN(Cc1ccc(C(F)(F)F)c(F)c1)[C@H]1CN(C(=O)c2ccc3nn[nH]c3c2)C[C@@H]1c1ccc(Cl)c(Cl)c1 (racemic) [Example 59, (3H-Benzotriazol-5-yl)-{(3SR,4RS)-3-(3,4-dichloro-phenyl)-4-[(3-fluoro-4-trifluoromethyl-benzyl)-methyl-amino]-pyrrolidin-1-yl}-methanone] | 0.0318
CN(Cc1ccc(C(F)(F)F)c(F)c1)[C@H]1CN(C(=O)c2ccc3nc[nH]c3c2)C[C@@H]1c1ccc(Cl)c(Cl)c1 (racemic) [Example 60, (3H-Benzoimidazol-5-yl)-{(3SR,4RS)-3-(3,4-dichloro-phenyl)-4-[(3-fluoro-4-trifluoromethyl-benzyl)-methyl-amino]-pyrrolidin-1-yl}-methanone] | 0.0173
CC(=O)Nc1ccc(C(=O)N2C[C@H](c3ccc(Cl)c(Cl)c3)[C@@H](N(C)Cc3ccc(C(F)(F)F)c(F)c3)C2)cc1 (racemic) [Example 61, N-(4-{(3SR,4RS)-3-(3,4-Dichloro-phenyl)-4-[(3-fluoro-4-trifluoromethyl-benzyl)-methyl-amino]-pyrrolidine-1-carbonyl}-phenyl)-acetamide] | 0.0373
CN(Cc1ccc(C(F)(F)F)c(F)c1)[C@H]1CN(C(=O)c2ccc(N3CCN(C(=O)OC(C)(C)C)CC3)nc2)C[C@@H]1c1ccc(Cl)c(Cl)c1 (racemic) [Example 63, 4-(5-{(3SR,4RS)-3-(3,4-Dichloro-phenyl)-4-[(3-fluoro-4-trifluoromethyl-benzyl)-methyl-amino]-pyrrolidine-1-carbonyl}-pyridin-2-yl)-piperazine-1-carboxylic acid tert-butyl ester] | 0.0247
CN(Cc1ccc(C(F)(F)F)c(F)c1)[C@H]1CN(C(=O)c2ccc(S(C)(=O)=O)cc2)C[C@@H]1c1ccc(Cl)c(Cl)c1 (racemic) [Example 22, {(3SR,4RS)-3-(3,4-Dichloro-phenyl)-4-[(3-fluoro-4-trifluoromethyl-benzyl)-methyl-amino]-pyrrolidin-1-yl}-(4-methanesulfonyl-phenyl)-methanone] | 0.0302
CN(Cc1ccc(C#N)c(F)c1)[C@H]1CN(C(=O)c2ccc(C#N)cc2)C[C@@H]1c1ccc(Cl)c(Cl)c1 (racemic) [Example 18, 4-({[(3RS,4SR)-1-(4-Cyano-benzoyl)-4-(3,4-dichloro-phenyl)-pyrrolidin-3-yl]-methyl-amino}-methyl)-2-fluoro-benzonitrile] | 0.042
CN(Cc1ccc(C(F)(F)F)c(F)c1)[C@H]1CN(C(=O)c2cc(S(C)(=O)=O)ccc2F)C[C@@H]1c1ccc(Cl)c(Cl)c1 (racemic) [Example 20, {(3SR,4RS)-3-(3,4-Dichloro-phenyl)-4-[(3-fluoro-4-trifluoromethyl-benzyl)-methyl-amino]-pyrrolidin-1-yl}-(2-fluoro-5-methanesulfonyl-phenyl)-methanone] | 0.0417
COc1ncc(C(=O)N2C[C@H](c3ccc(Cl)c(Cl)c3)[C@@H](N(C)Cc3ccc(C(F)(F)F)c(F)c3)C2)cn1 (racemic) [Example 57, {(3SR,4RS)-3-(3,4-Dichloro-phenyl)-4-[(3-fluoro-4-trifluoromethyl-benzyl)-methyl-amino]-pyrrolidin-1-yl}-(2-methoxy-pyrimidin-5-yl)-methanone] | 0.0223
Cc1ccc(C(=O)N2C[C@H](c3ccc(Cl)c(Cl)c3)[C@@H](N(C)Cc3ccc(C(F)(F)F)c(F)c3)C2)cn1 (racemic) [Example 25, {(3SR,4RS)-3-(3,4-Dichloro-phenyl)-4-[(3-fluoro-4-trifluoromethyl-benzyl)-methyl-amino]-pyrrolidin-1-yl}-(6-methyl-pyridin-3-yl)-methanone] | 0.0152
CN(Cc1ccc(C(F)(F)F)c(F)c1)[C@H]1CN(C(=O)c2ccc(C#N)cc2F)C[C@@H]1c1ccc(Cl)c(Cl)c1 (racemic) [Example 19, 4-{(3SR,4RS)-3-(3,4-Dichloro-phenyl)-4-[(3-fluoro-4-trifluoromethyl-benzyl)-methyl-amino]-pyrrolidine-1-carbonyl}-3-fluoro-benzonitrile] | 0.0129

Second part, the compound after the results:

Ki [µM] | SMILES
0.0066 | Cc1cc(C(=O)N2C[C@H](c3ccc(Cl)c(Cl)c3)[C@@H](N(C)Cc3ccc(C(F)(F)F)c(F)c3)C2)ccc1C#N (racemic) [Example 23, 4-{(3SR,4RS)-3-(3,4-Dichloro-phenyl)-4-[(3-fluoro-4-trifluoromethyl-benzyl)-methyl-amino]-pyrrolidine-1-carbonyl}-2-methyl-benzonitrile]
0.0056 | CN(Cc1ccc(C(F)(F)F)c(F)c1)[C@H]1CN(C(=O)c2ccc(-c3cccnc3)cc2)C[C@@H]1c1ccc(Cl)c(Cl)c1 (racemic) [Example 44, {(3SR,4RS)-3-(3,4-Dichloro-phenyl)-4-[(3-fluoro-4-trifluoromethyl-benzyl)-methyl-amino]-pyrrolidin-1-yl}-(4-pyridin-3-yl-phenyl)-methanone]
0.009 | CN(Cc1ccc(C(F)(F)F)c(F)c1)[C@H]1CN(C(=O)c2ccc(N3CCOCC3)cc2)C[C@@H]1c1ccc(Cl)c(Cl)c1 (racemic) [Example 38, {(3SR,4RS)-3-(3,4-Dichloro-phenyl)-4-[(3-fluoro-4-trifluoromethyl-benzyl)-methyl-amino]-pyrrolidin-1-yl}-(4-morpholin-4-yl-phenyl)-methanone]
0.002 | CN(Cc1ccc(C(F)(F)F)c(F)c1)[C@H]1CN(C(=O)c2ccc(N3CCS(=O)(=O)CC3)nc2)C[C@@H]1c1ccc(Cl)c(Cl)c1 (racemic) [Example 64, {(3SR,4RS)-3-(3,4-Dichloro-phenyl)-4-[(3-fluoro-4-trifluoromethyl-benzyl)-methyl-amino]-pyrrolidin-1-yl}-[6-(1,1-dioxo-1-6-thiomorpholin-4-yl)-pyridin-3-yl]-methanone]
0.0068 | CC(=O)c1ccc(C(=O)N2C[C@H](c3ccc(Cl)c(Cl)c3)[C@@H](N(C)Cc3ccc(C(F)(F)F)c(F)c3)C2)cc1 (racemic) [Example 24, 1-(4-{(3SR,4RS)-3-(3,4-Dichloro-phenyl)-4-[(3-fluoro-4-trifluoromethyl-benzyl)-methyl-amino]-pyrrolidine-1-carbonyl}-phenyl)-ethanone]
0.0057 | CN(Cc1ccc(C(F)(F)F)c(F)c1)[C@H]1CN(C(=O)c2ccc(N3CCOCC3)nc2)C[C@@H]1c1ccc(Cl)c(Cl)c1 (racemic) [Example 27, {(3SR,4RS)-3-(3,4-Dichloro-phenyl)-4-[(3-fluoro-4-trifluoromethyl-benzyl)-methyl-amino]-pyrrolidin-1-yl}-(6-morpholin-4-yl-pyridin-3-yl)-methanone]
0.0126 | CN(Cc1ccc(C(F)(F)F)c(F)c1)[C@H]1CN(C(=O)c2ccc(C#N)cc2)C[C@@H]1c1ccc(Cl)c(F)c1 (racemic) [Example 66, 4-{(3SR,4RS)-3-(4-Chloro-3-fluoro-phenyl)-4-[(3-fluoro-4-trifluoromethyl-benzyl)-methyl-amino]-pyrrolidine-1-carbonyl}-benzonitrile]
0.0051 | CN(Cc1ccc(C(F)(F)F)c(F)c1)[C@H]1CN(C(=O)c2ccc(-c3ccccn3)cc2)C[C@@H]1c1ccc(Cl)c(Cl)c1 (racemic) [Example 43, {(3SR,4RS)-3-(3,4-Dichloro-phenyl)-4-[(3-fluoro-4-trifluoromethyl-benzyl)-methyl-amino]-pyrrolidin-1-yl}-(4-pyridin-2-yl-phenyl)-methanone]
0.0028 | CN(Cc1ccc(C(F)(F)F)c(F)c1)[C@H]1CN(C(=O)c2ccc(-n3cccn3)nc2)C[C@@H]1c1ccc(Cl)c(Cl)c1 (racemic) [Example 30, {(3SR,4RS)-3-(3,4-Dichloro-phenyl)-4-[(3-fluoro-4-trifluoromethyl-benzyl)-methyl-amino]-pyrrolidin-1-yl}-(6-pyrazol-1-yl-pyridin-3-yl)-methanone]
0.0027 | CN(Cc1ccc(C(F)(F)F)c(F)c1)[C@H]1CN(C(=O)c2ccc(-n3cncn3)cc2)C[C@@H]1c1ccc(Cl)c(Cl)c1 (racemic) [Example 40, {(3SR,4RS)-3-(3,4-Dichloro-phenyl)-4-[(3-fluoro-4-trifluoromethyl-benzyl)-methyl-amino]-pyrrolidin-1-yl}-(4-[1,2,4]triazol-1-yl-phenyl)-methanone]
